We go through two compounds from article PMC5570900, “Exploiting a novel conformational switch to control innate immunity mediated by complement protein C3a” (Nature Communications, 2017).

In test [1] the target is T1, C3aR (Homo sapiens, UniProt Q16581).
T1 sequence (Q16581 1-482): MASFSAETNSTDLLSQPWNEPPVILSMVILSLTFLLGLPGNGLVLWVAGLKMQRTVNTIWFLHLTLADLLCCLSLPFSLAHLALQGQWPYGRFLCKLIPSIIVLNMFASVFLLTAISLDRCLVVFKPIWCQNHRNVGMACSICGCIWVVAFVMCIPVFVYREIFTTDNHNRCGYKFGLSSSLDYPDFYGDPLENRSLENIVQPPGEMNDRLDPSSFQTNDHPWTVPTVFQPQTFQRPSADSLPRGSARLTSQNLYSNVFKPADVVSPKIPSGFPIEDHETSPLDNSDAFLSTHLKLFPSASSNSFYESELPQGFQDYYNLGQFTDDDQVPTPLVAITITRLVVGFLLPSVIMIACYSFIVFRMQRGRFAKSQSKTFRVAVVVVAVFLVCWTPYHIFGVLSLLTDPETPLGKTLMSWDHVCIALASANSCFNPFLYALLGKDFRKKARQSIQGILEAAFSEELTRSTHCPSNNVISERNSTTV
As to the kind of experiment: Histamine secretion in human LAD2 mast cells (agonist mode). Type of test: cell-based. More on the design: Concentration-dependent histamine secretion in human LAD2 mast cells; endogenous in cells; host or cells: LAD2 human mast cells. Conditions: compound alone, 30 min, n ≥ 3, ± SEM. How it is done: (§1) LAD2 human mast cells (kindly provided by Dr Dean Metcalfe, National Institute of Allergy and Infectious Diseases, National Institute of Health) were cultured in StemPro®-34 Serum Free Media (Invitrogen, Australia) supplemented with StemPro®-34 nutrient, 100 U/mL penicillin, 100 μg/mL streptomycin, 2 mM GlutaMAX, and 100 ng/mL human stem cell factor (SCF). Cells were hemi-depleted weekly and were not allowed to grow beyond a density of 0.5 × 10^6/mL. This cell line was authenticated by expression of tryptase and histamine granules. For the histamine assay, 1 × 10^4 cells per well were seeded in StemPro®-34 SFM in 96-well plates for 30 min before any treatments. For agonist studies, the cells were treated with compounds prepared in media for 30 min. For antagonist studies, the cells were pre-treated with compounds prepared in SFM for 30 min before addition of C3aR agonists for another 30 min. Cells were centrifuged (500 g, 5 min, 4 °C) and cell-free supernatants were collected for measuring histamine. Histamine content was measured using the histamine EIA kit according to the manufacturer’s instructions (Abnova, Taiwan). The readings were recorded on a FLUOstar Optima (BMG LabTechnologies, Offenburg, Germany).

In test [2] the target is T1, C3aR. Description: Inhibition of hC3a-induced histamine secretion in human LAD2 mast cells (antagonist mode). Type of test: cell-based. Further details: Concentration-dependent histamine secretion in human LAD2 mast cells; endogenous in cells; host or cells: LAD2 human mast cells. Conditions: hC3a 100 nM, pre-treated 30 min, n ≥ 3, ± SEM. How it is done: as §1

The EC50 is the concentration needed to bring the measured effect to its halfway point. Compound `Cc1[nH]c(C(c2ccccc2)c2ccccc2)nc1C(=O)N[C@@H](CCCNC(=N)N)C(=O)O` [Compound 3] displayed a half-maximal effective concentration (EC50) at C3aR [1] of 0.02 ± 0.01 µM. The IC50 is the concentration that inhibits the measured activity by half. Consider `N=C(N)NCCCC(NC(=O)c1ccc(C(c2ccccc2)c2ccccc2)s1)C(=O)O` (centres unmarked) [Compound 6], for which the IC50 on C3aR [2] was determined as 0.0035 ± 0.0015 µM.
